System: ncRNAs (SEQ ID NO 28-89)
Test: ncRNA arrays of melanocytes, keratinocytes, normal skin, melanoma cell lines and patient samples
Parameters: species or system human
Details: for ncRNA array expression, patient 2: melanoma patient 2 sample compared to normal skin; for ncRNA array expression, patient 3: melanoma patient 3 sample compared to normal skin; for ncRNA array expression, patient 4: melanoma patient 4 sample compared to normal skin; for ncRNA array expression, patient 5: melanoma patient 5 sample compared to normal skin; for ncRNA array expression, patient 6: melanoma patient 6 sample compared to normal skin; for ncRNA array expression, patient 7: melanoma patient 7 sample compared to normal skin; for ncRNA array expression, patient 8: melanoma patient 8 sample compared to normal skin; for ncRNA array expression, patient 9: melanoma patient 9 sample compared to normal skin; for ncRNA array expression, patient 10: melanoma patient 10 sample compared to normal skin; for ncRNA array expression, patient 19: melanoma patient 19 sample compared to normal skin; for ncRNA array expression, patient 20: melanoma patient 20 sample compared to normal skin; for ncRNA array expression, patient 21: melanoma patient 21 sample compared to normal skin; for ncRNA array expression, patient 22: melanoma patient 22 sample compared to normal skin; for ncRNA array expression, patient 23: melanoma patient 23 sample compared to normal skin; for ncRNA array expression, patient 24: melanoma patient 24 sample compared to normal skin; for ncRNA array expression, patient 25: melanoma patient 25 sample compared to normal skin; for ncRNA array expression, patient 26: melanoma patient 26 sample compared to normal skin; for ncRNA array expression, patient 27: melanoma patient 27 sample compared to normal skin; for ncRNA array expression, patient 28: melanoma patient 28 sample compared to normal skin; for ncRNA array expression, patient 29: melanoma patient 29 sample compared to normal skin; for ncRNA array expression, patient 30: melanoma patient 30 sample compared to normal skin
Method in brief: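 Differential ncRNA expression was defined against melanocytes or normal skin after subtracting keratinocyte-specific signals, with confirmation by qRT-PCR and Northern blot. Samples were melanoma cell lines, patient tumours, melanocytes, keratinocytes and normal skin, hybridised to a >10,000-probe (>200 nt) ncRNA array that also carries RefSeq mRNA probes.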

Row | Substance | ncRNA array expression, patient 2 | ncRNA array expression, patient 3 | ncRNA array expression, patient 4 | ncRNA array expression, patient 5 | ncRNA array expression, patient 6 | ncRNA array expression, patient 7 | ncRNA array expression, patient 8 | ncRNA array expression, patient 9 | ncRNA array expression, patient 10 | ncRNA array expression, patient 19 | ncRNA array expression, patient 20 | ncRNA array expression, patient 21 | ncRNA array expression, patient 22 | ncRNA array expression, patient 23 | ncRNA array expression, patient 24 | ncRNA array expression, patient 25 | ncRNA array expression, patient 26 | ncRNA array expression, patient 27 | ncRNA array expression, patient 28 | ncRNA array expression, patient 29 | further results
1 | SEQ ID NO 86 (AAAATTATTTTATCTTAAGTTTCCATTTAGTTGATTAAAAATAGGGTTATGAATGTTAAA; listed as DNA, chemistry not given here; listed as Homo sapiens) | 2.021 | 1.628 | 5.076 | −0.09781 | −0.05485 | −0.1079 | 0.751 | 0.02401 | 1.097 | 1.409 | 0.8906 | 1.056 | −0.01773 | −0.00853 | 2.72 | 3.621 | 3.088 | 5.119 | −0.07222 | −0.07156 | ncRNA array expression, patient 30: 1.029
2 | SEQ ID NO 87 (GGGATATTTTTAAGGGGAAGGGGAAGGATAGAGAGAAAGTGCAGGCAGGGCTGGGGTCTG; listed as DNA, chemistry not given here; listed as Homo sapiens) | −2.131 | −1.6373 | −2.999 | −2.972 | −2.3216 | −2.468 | −2.76 | −1.536 | −1.881 | −0.8262 | −1.935 | −2.079 | −1.312 | −2 | −3.011 | −2.33 | −2.364 | −2.214 | −2.17 | −2.373 | ncRNA array expression, patient 30: 0.7984
3 | SEQ ID NO 88 (CTGTTGCTTATTCTGGGAGCCCAATCCTAGGCTGAGGGAGGTGGGCGCGGGGCTGTTTAA; listed as DNA, chemistry not given here; listed as Homo sapiens) | −1.501 | −1.118 | −1.158 | −1.192 | −0.882 | −1.165 | −1.206 | −1.551 | −1.883 | −0.5619 | −1.6443 | −1.527 | −0.8009 | −0.3034 | −1.128 | −1.933 | −1.942 | −2.173 | −1.861 | −2.1207 | ncRNA array expression, patient 30: 0.7208
4 | SEQ ID NO 89 (GGACACAGAGAGTCATGCACCAGCCCAGTGAGAACCAATTCAGAGCCAAATGCCAAACCC; listed as DNA, chemistry not given here; listed as Homo sapiens) | −1.09 | −1.2821 | −1.434 | −1.049 | −0.6535 | −0.5162 | −1.137 | −1.442 | −1.643 | −0.5304 | −0.7949 | −1.104 | −0.9143 | −0.3405 | −0.9409 | −1.675 | −1.6 | −0.9956 | −0.9677 | −1.266 | ncRNA array expression, patient 30: 0.7591

Reference: patent publication US20110143948A1, “MOLECULAR SIGNATURES AND BIOMARKERS ASSOCIATED WITH MELANOMA AND METHODS OF USE THEREOF” (priority 2008, published 2011)
